Legend:
[1] = molecular target: Recombinant SHP-1 protein (Homo sapiens, UniProt P29350); assay: SHP-1 phosphatase activity assay (RediPlate 96 EnzChek Tyrosine Phosphatase Assay kit); format: biochemical; settings: SC derivatives at 1 μM for 2 hr; recombinant SHP-1 25 ng; control DMSO = 100; mean±SD (N=3)
Experimental: Effects of SC Derivatives on Phosphatase Activity in Recombinant SHP-1 RediPlate 96 EnzChek Tyrosine Phosphatase Assay kit (R-22067) was used for SHP-1 activity assay (Molecular Probes). Recombinant SHP-1 protein (25 ng) was reacted with SC derivatives at 1 μM for 2 hr. Then the SHP-1 phosphatase activity assay was performed according to the user's manual and the absorbance was measured at 465 nm. The control group was DMSO, which functioned as the solvent of the SC derivatives. The values were expressed by mean±SD (N=3).

[2] = test system: PLC5 cells (a hepatocellular carcinoma cell line); assay: Cytotoxicity, MTT cell viability assay; format: cell-based; settings: 72 h exposure
Experimental: PLC5 cells (a hepatocellular carcinoma cell line) were seeded at 5×10^3 cells per well in 96-well plates. Then, cells were exposed to SC derivatives at the indicated doses for 72 h. After that, cells were incubated with MTT (1 mg/ml) (Sigma-Aldrich, St. Louis, Mo.) for 2 h at 37° C. Cell viability was then assessed by measuring the absorbance at 570 nm using a microplate reader.

Sequence of Recombinant SHP-1 protein (P29350 whole entry): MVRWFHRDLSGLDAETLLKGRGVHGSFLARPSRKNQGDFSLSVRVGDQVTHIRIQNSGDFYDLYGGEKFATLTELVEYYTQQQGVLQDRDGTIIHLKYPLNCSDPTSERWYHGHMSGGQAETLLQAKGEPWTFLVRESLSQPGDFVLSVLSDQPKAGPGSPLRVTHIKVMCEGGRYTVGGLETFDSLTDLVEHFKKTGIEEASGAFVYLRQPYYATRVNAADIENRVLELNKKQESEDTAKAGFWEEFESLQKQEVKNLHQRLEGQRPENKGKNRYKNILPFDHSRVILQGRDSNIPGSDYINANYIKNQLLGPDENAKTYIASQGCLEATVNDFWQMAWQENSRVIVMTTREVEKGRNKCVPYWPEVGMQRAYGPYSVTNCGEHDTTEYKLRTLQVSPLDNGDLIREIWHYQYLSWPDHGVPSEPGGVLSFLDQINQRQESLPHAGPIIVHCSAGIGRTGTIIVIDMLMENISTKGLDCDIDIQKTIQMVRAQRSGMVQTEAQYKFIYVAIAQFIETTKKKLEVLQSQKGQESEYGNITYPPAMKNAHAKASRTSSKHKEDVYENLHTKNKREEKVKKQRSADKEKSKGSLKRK

Cc1ccc(NC(=O)Nc2ccc(C)c(Oc3ccc(C#N)nc3)c2)cc1Oc1ccc(C#N)nc1 [compound 86, 1,3-bis(3-((6-cyanopyridin-3-yl)oxy)-4-methylphenyl)urea]
SHP-1 Activity (% of control) [1]: 81.06 ± 7.61 % of control | IC50 [2]: > 10000 nM

N#Cc1ccc(Oc2ccc3cccc(NC(=O)Nc4ccc(Cl)c(C(F)(F)F)c4)c3c2)cc1Cl [compound 109, 1-(4-chloro-3-(trifluoromethyl)phenyl)-3-(7-(3-chloro-4-cyanophenoxy)naphthalen-1-yl)urea]
SHP-1 Activity (% of control) [1]: 143.61 ± 5.36 % of control | IC50 [2]: 2070 nM

N#Cc1ccc(Oc2cc(NC(=O)Nc3cccc(C(F)(F)F)c3)ccc2Cl)cc1Cl [compound 178, 1-(4-chloro-3-(3-chloro-4-cyanophenoxy)phenyl)-3-(3-(trifluoromethyl)phenyl)urea]
SHP-1 Activity (% of control) [1]: 106.69 ± 9.47 % of control | IC50 [2]: 1490 nM

Cc1ccc(NC(=O)Nc2ccc(C)c(Oc3ccc(C#N)c(Cl)c3)c2)cc1Oc1ccc(C#N)nc1 [compound 103, 1-(3-(3-chloro-4-cyanophenoxy)-4-methylphenyl)-3-(3-((6-cyanopyridin-3-yl)oxy)51-4-methylphenyl)urea]
SHP-1 Activity (% of control) [1]: 123.75 ± 32.58 % of control | IC50 [2]: 190 nM

N#CCc1ccc(NC(=O)Nc2cc(Oc3ccc(C#N)cc3)ccc2F)cc1 [compound 146, 1-(4-(cyanomethyl)phenyl)-3-(5-(4-cyanophenoxy)-2-fluorophenyl)urea]
SHP-1 Activity (% of control) [1]: 139.68 ± 6.63 % of control | IC50 [2]: 2590 nM

N#Cc1ccc(Oc2ccc(F)c(NC(=O)Nc3cc(C(F)(F)F)cc(C(F)(F)F)c3)c2)cn1 [compound 183, 1-(3,5-bis(trifluoromethyl)phenyl)-3-(5-((6-cyanopyridin-3-yl)oxy)-2-fluorophenyl)urea]
SHP-1 Activity (% of control) [1]: 353.11 ± 30.81 % of control | IC50 [2]: 530 nM

N#Cc1ccc(Oc2ccc3c(c2)OCCN3C(=O)Nc2ccc(F)c(C(F)(F)F)c2)cc1 [compound 166, 7-(4-cyanophenoxy)-N-(4-fluoro-3-(trifluoromethyl)phenyl)-2H-benzo[b][1,4]oxazine-4(3H)-carboxamide]
SHP-1 Activity (% of control) [1]: 51.89 ± 8.16 % of control | IC50 [2]: 1320 nM

Cc1cc(Oc2ccc(C#N)cc2)ccc1NC(=O)Nc1ccc(Oc2ccc(C#N)cc2)cc1C [compound 90, 1,3-bis(4-(4-cyanophenoxy)-2-methylphenyl)urea]
SHP-1 Activity (% of control) [1]: 95.78 ± 10.66 % of control | IC50 [2]: > 10000 nM

Cc1ccc(NC(=O)Nc2ccc(C)c(Oc3ccc(C#N)c(Cl)c3)c2)cc1Oc1ccc(C#N)cc1 [compound 100, 1-(3-(3-chloro-4-cyanophenoxy)-4-methylphenyl)-3-(3-(4-cyanophenoxy)-4-methylphenyl)urea]
SHP-1 Activity (% of control) [1]: 94.38 ± 11.11 % of control | IC50 [2]: 110 nM

N#Cc1ccc(Oc2ccc3c(c2)OCCN3C(=O)Nc2cc(C(F)(F)F)cc(C(F)(F)F)c2)cc1 [compound 164, N-(3,5-bis(trifluoromethyl)phenyl)-7-(4-cyanophenoxy)-2H-benzo[b][1,4]oxazine-4(3H)-carboxamide]
SHP-1 Activity (% of control) [1]: 83.70 ± 10.90 % of control | IC50 [2]: > 10000 nM

Cc1ccc(NC(=O)Nc2ccc(C)c(Oc3ccc(/C(N)=N/O)cc3)c2)cc1Oc1ccc(/C(N)=N/O)cc1 [compound 94, (1Z,1′Z)-4,4′-(((carbonylbis(azanediyl))bis(2-methyl-5,1-phenylene))bis(oxy))bis(N′-hydroxybenzimidamide)]
SHP-1 Activity (% of control) [1]: 114.65 ± 13.55 % of control | IC50 [2]: > 10000 nM

Cc1cc(Oc2cc(NC(=O)Nc3ccc(C)c(Oc4ccc(C#N)nc4)c3)ccc2C)ccc1C#N [compound 102, 1-(3-(4-cyano-3-methylphenoxy)-4-methylphenyl)-3-(3-((6-cyanopyridin-3-yl)oxy)-4-methylphenyl)urea]
SHP-1 Activity (% of control) [1]: 140.46 ± 12.56 % of control | IC50 [2]: 160 nM

N#Cc1ccc(Oc2cc(NC(=O)Nc3cc(C(F)(F)F)cc(C(F)(F)F)c3)ccc2F)cc1 [compound 152, 1-(3,5-bis(trifluoromethyl)phenyl)-3-(3-(4-cyanophenoxy)-4-fluorophenyl) urea]
SHP-1 Activity (% of control) [1]: 336.99 ± 50.76 % of control | IC50 [2]: 340 nM

O=C(Nc1ccc(Cl)c(C(F)(F)F)c1)Nc1ccc(Cl)c(C(F)(F)F)c1 [compound 78, 1,3-bis(4-chloro-3-(trifluoromethyl)phenyl)urea]
SHP-1 Activity (% of control) [1]: 113.65 ± 13.93 % of control | IC50 [2]: > 10000 nM

N#Cc1ccc(Oc2cc(NC(=O)Nc3ccc(F)c(C(F)(F)F)c3)ccc2Cl)cc1Cl [compound 181, 1-(4-chloro-3-(3-chloro-4-cyanophenoxy)phenyl)-3-(4-fluoro-3-(trifluoromethyl)phenyl)urea]
SHP-1 Activity (% of control) [1]: 106.88 ± 3.58 % of control | IC50 [2]: 930 nM

Cc1ccc(NC(=O)Nc2ccc(C)c(Oc3ccc(C#N)c(Cl)c3)c2)cc1Oc1ccc(C#N)c(Cl)c1 [compound 82, 1,3-bis(3-(3-chloro-4-cyanophenoxy)-4-methylphenyl)urea]
SHP-1 Activity (% of control) [1]: 92.68 ± 5.66 % of control | IC50 [2]: 4140 nM

CC1=CCC(NC(=O)C(=O)Nc2ccc(C)c(Oc3ccc(C#N)cc3)c2)C=C1OC1C=CC(C#N)=CC1 (stereo not shown) [compound 71, N^1-(3-((4-cyanocyclohexa-2,4-dien-1-yl)oxy)-4-methylcyclohexa-2,4-dien-1-yl)-N^2-(3-(4-cyanophenoxy)-4-methylphenyl)oxalamide]
SHP-1 Activity (% of control) [1]: 87.54 ± 10.21 % of control | IC50 [2]: 210 nM

N#Cc1ccc(Oc2cc(NC(=O)Nc3ccc(F)c(Oc4ccc(C#N)cc4)c3)ccc2F)cc1 [compound 112, 1,3-bis(3-(4-cyanophenoxy)-4-fluorophenyl)urea]
SHP-1 Activity (% of control) [1]: 146.18 ± 14.74 % of control | IC50 [2]: 490 nM

Cc1ccc(NC(=O)Nc2ccc(C)c(Oc3ccc(C#N)nc3)c2)cc1Oc1ccc(C#N)cc1 [compound 99, 1-(3-(4-cyanophenoxy)-4-methylphenyl)-3-(3-((6-cyanopyridin-3-yl)oxy)-4-methylphenyl)urea]
SHP-1 Activity (% of control) [1]: 99.86 ± 3.65 % of control | IC50 [2]: 180 nM

N#CCc1ccc(NC(=O)N2CCOc3ccc(Oc4ccc(C#N)cc4)cc32)cc1 [compound 160, N-(4-(cyanomethyl)phenyl)-6-(4-cyanophenoxy)-2H-benzo[b][1,4]oxazine-4(3H)-carboxamide]
SHP-1 Activity (% of control) [1]: 116.47 ± 6.60 % of control | IC50 [2]: 5130 nM

N#CC1=CCC(OC2=CC(NC(=O)C(=O)Nc3cccc(Oc4ccc(C#N)cc4)c3)CC=C2)C=C1 (stereo not shown) [compound 70, N^1-(3-((4-cyanocyclohexa-2,4-dien-1-yl)oxy)cyclohexa-2,4-dien-1-yl)-N^2-(3-(4-cyanophenoxy)phenyl)oxalamide]
SHP-1 Activity (% of control) [1]: 91.23 ± 15.95 % of control | IC50 [2]: > 10000 nM

N#Cc1ccc(Oc2cccc(NC(=O)Nc3ccc(Cl)c(C(F)(F)F)c3)c2)c(F)c1 [compound 80, 1-(4-chloro-3-(trifluoromethyl)phenyl)-3-(3-(4-cyano-2-fluorophenoxy)phenyl) urea]
SHP-1 Activity (% of control) [1]: X91.93 ± 8.09 % of control | IC50 [2]: 1670 nM

N#Cc1ccc(Oc2ccc(Cl)c(NC(=O)Nc3cc(Oc4ccc(C#N)cc4)ccc3Cl)c2)cc1 [compound 91, 1,3-bis(2-chloro-5-(4-cyanophenoxy)phenyl)urea]
SHP-1 Activity (% of control) [1]: 99.99 ± 4.52 % of control | IC50 [2]: > 10000 nM

Source: patent US10745346B2, “Agonists of protein tyrosine phosphatase SHP-1” (priority 2015, dated 2020)
